{"source": "patent US10919891B2", "about": "“Heterocyclic compound” (TAKEDA PHARMACEUTICAL COMPANY LIMITED, priority 2017, dated 2021)", "target": "T1, human CaSR (Homo sapiens, UniProt P41180)", "T1 construct": "expressed in transfected cells; host or cells: CHO cells", "T1 sequence (P41180 20-1078)": "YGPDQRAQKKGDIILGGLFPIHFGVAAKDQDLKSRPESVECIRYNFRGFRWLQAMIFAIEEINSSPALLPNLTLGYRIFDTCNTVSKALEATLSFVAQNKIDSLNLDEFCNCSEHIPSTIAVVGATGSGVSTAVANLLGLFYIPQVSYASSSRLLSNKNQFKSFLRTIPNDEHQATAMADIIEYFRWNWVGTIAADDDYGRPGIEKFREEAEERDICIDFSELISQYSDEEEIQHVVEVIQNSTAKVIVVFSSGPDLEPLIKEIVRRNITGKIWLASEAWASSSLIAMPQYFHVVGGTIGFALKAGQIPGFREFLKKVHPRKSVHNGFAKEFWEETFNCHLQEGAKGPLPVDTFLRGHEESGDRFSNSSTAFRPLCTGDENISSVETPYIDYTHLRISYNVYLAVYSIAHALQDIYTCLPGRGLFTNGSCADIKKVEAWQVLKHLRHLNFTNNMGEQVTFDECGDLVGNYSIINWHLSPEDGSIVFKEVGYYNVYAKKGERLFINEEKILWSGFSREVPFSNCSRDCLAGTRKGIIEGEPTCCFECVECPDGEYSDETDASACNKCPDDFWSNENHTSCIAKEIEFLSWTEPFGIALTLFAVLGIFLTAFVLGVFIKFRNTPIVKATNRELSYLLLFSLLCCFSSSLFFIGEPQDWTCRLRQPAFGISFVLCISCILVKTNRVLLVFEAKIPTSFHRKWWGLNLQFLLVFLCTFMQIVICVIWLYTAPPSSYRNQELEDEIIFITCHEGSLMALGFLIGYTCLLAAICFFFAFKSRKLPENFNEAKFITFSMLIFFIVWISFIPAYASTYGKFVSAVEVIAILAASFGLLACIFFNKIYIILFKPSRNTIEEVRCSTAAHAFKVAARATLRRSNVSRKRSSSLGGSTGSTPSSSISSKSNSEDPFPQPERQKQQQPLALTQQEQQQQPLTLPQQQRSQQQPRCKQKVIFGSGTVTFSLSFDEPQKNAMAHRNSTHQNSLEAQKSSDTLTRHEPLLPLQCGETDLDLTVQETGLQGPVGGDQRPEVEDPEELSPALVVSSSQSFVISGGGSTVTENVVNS", "experiment": "Human CaSR Antagonist Activity (CHO cells, NFAT-Luciferase reporter)", "type": "cell-based", "conditions": "CHO, 2 h, 3.3 μm test compound; CaCl2 final 1.3 mM; 100% = reference carboxamide at 10 μM; read-out: Inhibition rate (%) at 3.3 μm", "procedure": "CaSR antagonist activity measurement was performed using Bright-Glo Luciferase assay system (Promega Corporation). CHO cells in which human CaSR and NFAT-Luciferase reporter gene were forcibly expressed were suspended in MEM alpha (Wako Pure Chemical Industries, Ltd.) containing 10% dialyzed serum (HyClone). The cells in suspension was seeded in 384-well white plate (Corning) at 10,000/20 μL/well, and cultured in an incubator of 37° C., 5% CO2 for one day. A diluent of Test compound was prepared with assay buffer (MEM alpha containing 10 mM HEPES (Life Technologies) and 10% dialysis serum). The diluent was added to the plate at 5 μL/well and allowed to stand at 37° C. for 10 minutes. Further, a diluent of 7.8 mM CaCl2 prepared with assay buffer (final concentration 1.3 mM) was added at 5 μl/well and allowed to stand in an incubator of 37° C., 5% CO2 for 2 hours. Bright-Glo reagents (Promega Corporation) were added at 10 μL/well, and the obtained mixture was stirred for 5 minutes, and then luminescence intensity was measured using Multi-label reader Envision (PerkinElmer, Inc.). The activity (%) of the test compound was calculated with the definitions in which the luminescence intensity when DMSO is added in place of the test compound is defined as 0% inhibition; and the luminescence intensity when (5R)—N-(1-ethyl-1-(4-ethylphenyl)propyl)-2,7,7-trimethyl-5-phenyl-4,5,6,7-tetrahydropyrazolo[1,5-a]Pyrimidine-3-carboxamide at final concentration of 10 μM is added is defined as 100% inhibition."}
{"smiles": "CC1(C)C[C@H](c2ccccc2)Nc2c(C(=O)N3C[C@@H]4C[C@]4(c4ccc(Cl)c(Cl)c4)C3)cnn21", "note": "[Example 1, ((1S,5R)-1-(3,4-Dichlorophenyl)-3-azabicyclo[3.1.0]hex-3-yl)((5R)-7,7-dimethyl-5-phenyl-4,5,6,7-tetrahydropyrazolo[1,5-a]pyrimidin-3-yl)methanone]", "values": [{"measurement": "inhibition at 3.3 µM", "result": 100, "unit": "%"}]}
